# Assay results taken from ChEMBL document CHEMBL1201862, “PubChem BioAssay data set” (2004).
#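 Compound exposure: 48 hours, 5 concentrations, 96-well plates. Here, GI50 denotes the concentration required for 50% inhibition of growth.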 The source made the active and inactive calls. Rule as the data show it: active = GI50 up to about 1.1 µM and inactive = higher.
# Assays:
# Assay in all cases: NCI anticancer screen, dose series, 48 h
# 786-0 = system: 786-0
# OVCAR-4 = system: OVCAR-4
# SNB-19 = system: SNB-19
# M14 = system: M14
# COLO 205 = system: COLO 205
# A498 = system: A498
# NCI/ADR-RES = system: NCI/ADR-RES
# A549 = system: A549
# SN12C = system: SN12C
# Hs-578T = system: Hs-578T
# SF-539 = system: SF-539
# SF-268 = system: SF-268
# SNB-75 = system: SNB-75
# HCT-116 = system: HCT-116
# U-251 = system: U-251
# T47D = system: T47D
# RPMI-8226 = system: RPMI-8226
# OVCAR-3 = system: OVCAR-3
# UACC-62 = system: UACC-62
# MDA-N = system: MDA-N
# DU-145 = system: DU-145
# HOP-92 = system: HOP-92
# MDA-MB-435 = system: MDA-MB-435
# HL-60 = system: HL-60
# HCT-15 = system: HCT-15
# BT-549 = system: BT-549
# SW-620 = system: SW-620
# NCI-H460 = system: NCI-H460
# ACHN = system: ACHN
# NCI-H23 = system: NCI-H23
# SR = system: SR
# PC-3 = system: PC-3
# KM12 = system: KM12
# OVCAR-5 = system: OVCAR-5
# MOLT-4 = system: MOLT-4
# SK-MEL-28 = system: SK-MEL-28
# K562 = system: K562
# SK-OV-3 = system: SK-OV-3
# IGROV-1 = system: IGROV-1
# MCF7 = system: MCF7
# HOP-62 = system: HOP-62
# EKVX = system: EKVX
# MDA-MB-231 = system: MDA-MB-231
# RXF 393 = system: RXF 393
# CAKI-1 = system: CAKI-1
# SF-295 = system: SF-295
# SK-MEL-2 = system: SK-MEL-2
# HT-29 = system: HT-29
# UO-31 = system: UO-31
# UACC-257 = system: UACC-257
# CCRF-CEM = system: CCRF-CEM
# LOX IMVI = system: LOX IMVI
# NCI-H226 = system: NCI-H226
# HCC 2998 = system: HCC 2998
# TK-10 = system: TK-10
# NCI-H522 = system: NCI-H522
# SK-MEL-5 = system: SK-MEL-5
# Malme-3M = system: Malme-3M
# OVCAR-8 = system: OVCAR-8
compound,measurement,setting,value
N=C(N)NCCCC(NC(=O)OCCCCCCn1ccc(N)nc1=O)C(=O)O (configuration not stated),GI50,786-0,> 100 µM (inactive)
same,GI50,OVCAR-4,> 100 µM (inactive)
same,GI50,SNB-19,> 100 µM (inactive)
same,GI50,M14,> 100 µM (inactive)
same,GI50,COLO 205,> 100 µM (inactive)
same,GI50,A498,> 100 µM (inactive)
same,GI50,NCI/ADR-RES,4.75 µM (inactive)
same,GI50,A549,> 100 µM (inactive)
same,GI50,SN12C,> 100 µM (inactive)
same,GI50,Hs-578T,> 100 µM (inactive)
same,GI50,SF-539,> 100 µM (inactive)
same,GI50,SF-268,> 100 µM (inactive)
same,GI50,SNB-75,> 100 µM (inactive)
same,GI50,HCT-116,> 100 µM (inactive)
same,GI50,U-251,> 100 µM (inactive)
same,GI50,T47D,> 100 µM (inactive)
same,GI50,RPMI-8226,> 100 µM (inactive)
same,GI50,OVCAR-3,> 100 µM (inactive)
same,GI50,UACC-62,> 100 µM (inactive)
same,GI50,MDA-N,> 100 µM (inactive)
same,GI50,DU-145,> 100 µM (inactive)
same,GI50,HOP-92,> 100 µM (inactive)
same,GI50,MDA-MB-435,> 100 µM (inactive)
same,GI50,HL-60,> 100 µM (inactive)
same,GI50,HCT-15,> 100 µM
same,GI50,BT-549,> 100 µM (inactive)
same,GI50,SW-620,> 100 µM (inactive)
same,GI50,NCI-H460,> 100 µM (inactive)
same,GI50,ACHN,> 100 µM (inactive)
same,GI50,NCI-H23,> 100 µM (inactive)
same,GI50,SR,> 100 µM (inactive)
same,GI50,PC-3,> 100 µM (inactive)
same,GI50,KM12,> 100 µM (inactive)
same,GI50,OVCAR-5,> 100 µM (inactive)
same,GI50,MOLT-4,> 100 µM (inactive)
same,GI50,SK-MEL-28,> 100 µM (inactive)
same,GI50,K562,> 100 µM (inactive)
same,GI50,SK-OV-3,> 100 µM (inactive)
same,GI50,IGROV-1,> 100 µM (inactive)
same,GI50,MCF7,> 100 µM (inactive)
same,GI50,HOP-62,> 100 µM (inactive)
same,GI50,EKVX,> 100 µM (inactive)
same,GI50,MDA-MB-231,> 100 µM (inactive)
same,GI50,RXF 393,> 100 µM (inactive)
same,GI50,CAKI-1,> 100 µM (inactive)
same,GI50,SF-295,> 100 µM (inactive)
same,GI50,SK-MEL-2,> 100 µM (inactive)
same,GI50,HT-29,> 100 µM (inactive)
same,GI50,UO-31,> 100 µM (inactive)
same,GI50,UACC-257,> 100 µM (inactive)
same,GI50,CCRF-CEM,> 100 µM (inactive)
same,GI50,LOX IMVI,> 100 µM (inactive)
same,GI50,NCI-H226,418 nM (active)
same,GI50,HCC 2998,> 100 µM (inactive)
same,GI50,TK-10,> 100 µM (inactive)
CSc1cc(Cl)c(C(=O)Nc2ccccc2)cc1S(=O)(=O)n1ccnc1O,GI50,786-0,> 100 µM (inactive)
same,GI50,OVCAR-4,> 100 µM (inactive)
same,GI50,NCI-H522,> 100 µM (inactive)
same,GI50,SNB-19,> 100 µM (inactive)
same,GI50,M14,> 100 µM (inactive)
same,GI50,COLO 205,> 100 µM (inactive)
same,GI50,A498,> 100 µM (inactive)
same,GI50,NCI/ADR-RES,> 100 µM (inactive)
same,GI50,A549,> 100 µM (inactive)
same,GI50,SN12C,> 100 µM (inactive)
same,GI50,Hs-578T,> 100 µM (inactive)
same,GI50,SF-539,> 100 µM (inactive)
same,GI50,SF-268,> 100 µM (inactive)
same,GI50,SNB-75,> 100 µM (inactive)
same,GI50,HCT-116,> 100 µM (inactive)
same,GI50,U-251,> 100 µM (inactive)
same,GI50,T47D,> 100 µM (inactive)
same,GI50,RPMI-8226,> 100 µM (inactive)
same,GI50,OVCAR-3,> 100 µM (inactive)
same,GI50,UACC-62,> 100 µM (inactive)
same,GI50,SK-MEL-5,> 100 µM (inactive)
same,GI50,MDA-N,> 100 µM (inactive)
same,GI50,DU-145,> 100 µM (inactive)
same,GI50,HOP-92,> 100 µM (inactive)
same,GI50,MDA-MB-435,> 100 µM (inactive)
same,GI50,HL-60,> 100 µM (inactive)
same,GI50,HCT-15,> 100 µM
same,GI50,BT-549,> 100 µM (inactive)
same,GI50,SW-620,> 100 µM (inactive)
same,GI50,NCI-H460,> 100 µM (inactive)
same,GI50,ACHN,> 100 µM (inactive)
same,GI50,NCI-H23,> 100 µM (inactive)
same,GI50,SR,> 100 µM (inactive)
same,GI50,PC-3,> 100 µM (inactive)
same,GI50,KM12,> 100 µM (inactive)
same,GI50,OVCAR-5,> 100 µM (inactive)
same,GI50,MOLT-4,> 100 µM (inactive)
same,GI50,SK-MEL-28,> 100 µM (inactive)
same,GI50,K562,> 100 µM (inactive)
same,GI50,SK-OV-3,> 100 µM (inactive)
same,GI50,IGROV-1,> 100 µM (inactive)
same,GI50,MCF7,> 100 µM (inactive)
same,GI50,HOP-62,> 100 µM (inactive)
same,GI50,EKVX,> 100 µM (inactive)
same,GI50,MDA-MB-231,> 100 µM (inactive)
same,GI50,RXF 393,> 100 µM (inactive)
same,GI50,CAKI-1,> 100 µM (inactive)
same,GI50,Malme-3M,> 100 µM (inactive)
same,GI50,SK-MEL-2,> 100 µM (inactive)
same,GI50,HT-29,> 100 µM (inactive)
same,GI50,UO-31,> 100 µM (inactive)
same,GI50,UACC-257,> 100 µM (inactive)
same,GI50,CCRF-CEM,> 100 µM (inactive)
same,GI50,LOX IMVI,> 100 µM (inactive)
same,GI50,OVCAR-8,> 100 µM (inactive)
same,GI50,HCC 2998,> 100 µM (inactive)
same,GI50,TK-10,> 100 µM (inactive)
